Molecules are shown by their SMILES.

This note sets out measurements from patent US20120202701A1, “AN ANTIBODY-GLYCAN COMPLEX TARGETING THE DISIALYL CORE II AND SIALYL LEWIS X STRUCTURES, AND USES THEREOF INVOLVING ANALYSIS OF STEM CELLS OR CANCER CELLS” (GLYKOS FINLAND OY, priority 2009, published 2012).

The subject of assay [1] is mAb CHO-131. The experiment in a line: Glycan microarray analysis (Consortium for Functional Glycomics, printed array version 4.0), glycan binding of mAb CHO-131. The conditions noted are these: for RFU: mAb CHO-131 at 50 μg/ml, average RFU of 6 replicates after removal of highest and lowest values. How it is done: (§1) mAb CHO-131 was purchased from R&D Systems (MAB996). mAb CSLEX was purchased form BD Biosciences (551344). Glycan microarray analysis was carried out by the Consortium for Functional Glycomics. Glycan microarrays were printed as described (Blixt 2004). Version 4.0 of the printed glycan array was used for analysis. Binding analysis was performed at 50 μg/ml of antibody. Data are reported as average RFU of 6 replicates after removal of highest and lowest values.

Assay [2] has as its system mAb CSLEX. The experiment in a line: Glycan microarray analysis (Consortium for Functional Glycomics, printed array version 4.0), glycan binding of mAb CSLEX. Particulars: mAb CSLEX at 50 μg/ml; average RFU of 6 replicates after removal of highest and lowest values. How it is done:
as §1

With `CC(=O)N[C@H]1[C@H](OCCCN)O[C@H](CO)[C@@H](O)[C@@H]1O[C@@H]1O[C@H](C(=O)O)[C@@H](O)[C@H](O)[C@H]1O` [Chart Number 299, GlcAb1-3GlcNAcb-Sp8, reference compound], the “binding to CHO-131 antibody, in words” value in assay [1] (glycan microarray, as described) is recorded as “some binding”. In the case of `NCCCO[C@@H]1O[C@H](COS(=O)(=O)O)[C@@H](O[C@@H]2O[C@H](CO)[C@H](O)[C@H](OS(=O)(=O)O)[C@H]2O)[C@H](O)[C@H]1O` [compound 25], the RFU in assay [1] worked out at 903 RFU. Same read-out and setting: the result for `CC(=O)N[C@H]1[C@H](OCCN)O[C@H](COS(=O)(=O)O)[C@@H](O[C@@H]2O[C@H](CO)[C@H](O)[C@H](OS(=O)(=O)O)[C@H]2O)[C@@H]1O` [compound 31] reads 266 RFU.

Consider `CC(=O)N[C@H]1[C@H](OCCCN)O[C@H](COS(=O)(=O)O)[C@@H](O[C@@H]2O[C@H](CO)[C@H](O)[C@H](OS(=O)(=O)O)[C@H]2O)[C@@H]1O` [compound 32], for which the RFU in assay [1] was 584 RFU. For `NCCCO[C@@H]1O[C@H](CO)[C@H](O)[C@H](OS(=O)(=O)O)[C@H]1O` [compound 35], the RFU in assay [1] was determined as 345 RFU. Still for that read-out and setting: then `CC(=O)N[C@H]1[C@H](OCCN)O[C@H](CO)[C@@H](O[C@@H]2O[C@H](COS(=O)(=O)O)[C@H](OS(=O)(=O)O)[C@H](O)[C@H]2O)[C@@H]1O` [compound 36], with 427 RFU; and `NCCCO[C@@H]1O[C@H](COS(=O)(=O)O)[C@@H](O[C@@H]2O[C@H](COS(=O)(=O)O)[C@H](O)[C@H](O)[C@H]2O)[C@H](O)[C@H]1O` [compound 42], with 505 RFU. In assay [2], `CC(=O)N[C@H]1[C@H](OCCN)O[C@H](CO)[C@@H](O[C@@H]2O[C@H](CO)[C@H](O)[C@H](O[C@H]3O[C@H](CO)[C@H](O)[C@H](O)[C@H]3NC(C)=O)[C@H]2O[C@@H]2O[C@@H](C)[C@@H](O)[C@@H](O)[C@@H]2O)[C@@H]1O` [compound 82] yielded an RFU of 30 RFU.

In the case of `CC(=O)N[C@H]1[C@H](O[C@H]2[C@@H](O)[C@@H](CO)O[C@H](OCCCN)[C@@H]2NC(C)=O)O[C@H](CO)[C@H](O)[C@@H]1O` [compound 91], in assay [2], the RFU was found to be 56 RFU. The same measure, in the same setting: then `CC(=O)NC1C(O)CC(OC2C(O)C(OC3C(CO)OC(OCCN)C(O)C3O)OC(CO)C2OC2OC(CO)C(O)C(OC3OC(CO)C(O)C(O)C3O)C2NC(C)=O)(C(=O)O)OC1C(O)C(O)CO` (centres unmarked) [compound 135], with 28 RFU.

`CC(=O)N[C@H]1[C@H](O[C@@H]2[C@H](O)[C@@H](O)[C@H](O[C@H]3[C@H](O)[C@@H](O)[C@H](OCCCN)O[C@@H]3CO)O[C@@H]2CO)O[C@H](CO)[C@H](O)[C@@H]1O[C@@H]1O[C@H](CO)[C@H](O)[C@H](O)[C@H]1O` [compound 136] displayed an RFU in assay [2] of 58 RFU.

`NCCCO[C@@H]1O[C@H](CO)[C@H](O)[C@H](O[C@@H]2O[C@H](CO)[C@H](O)[C@H](O)[C@H]2O)[C@H]1O` [compound 137]: the RFU in assay [2] worked out at 37 RFU. The same measure, in the same setting: the result for `CC(=O)N[C@H]1[C@H](O[C@@H]2[C@H](O)[C@@H](O)[C@H](O[C@H]3[C@H](O[C@@H]4O[C@@H](C)[C@@H](O)[C@@H](O)[C@@H]4O)[C@@H](NC(C)=O)[C@H](OCCN)O[C@@H]3CO)O[C@@H]2CO)O[C@H](CO)[C@@H](O[C@@H]2O[C@H](CO)[C@H](O)[C@H](O)[C@H]2O)[C@@H]1O[C@@H]1O[C@@H](C)[C@@H](O)[C@@H](O)[C@@H]1O` [compound 144] reads 28 RFU. For `NCCO[C@@H]1O[C@H](COS(=O)(=O)O)[C@@H](O[C@@H]2O[C@H](CO)[C@H](O)[C@H](O)[C@H]2O)[C@H](O)[C@H]1O` [compound 146], in assay [1], the RFU came out at 148 RFU. In turn, `CC(=O)N[C@H]1[C@H](O[C@H]2[C@@H](O)[C@@H](CO)O[C@@H](O[C@H]3[C@H](O)[C@@H](O)[C@H](OCCN)O[C@@H]3CO)[C@@H]2O)O[C@H](CO)[C@@H](O[C@@H]2O[C@H](CO)[C@H](O)[C@H](O)[C@H]2O)[C@@H]1O` [compound 155] displayed an RFU in assay [2] of 29 RFU. On the same count and under the same terms, then `CC(=O)N[C@H]1[C@H](OCCCN)O[C@H](CO)[C@@H](O[C@@H]2O[C@H](CO)[C@H](O)[C@H](O)[C@H]2O)[C@@H]1O` [compound 161], with 34 RFU; and `CC(=O)N[C@H]1[C@H](O[C@H]2[C@@H](O)[C@@H](CO)O[C@@H](OCCCN)[C@@H]2O)O[C@H](CO)[C@@H](O)[C@@H]1O` [compound 171], with 106 RFU. With `CC(=O)N[C@H]1[C@@H](OCCCN)O[C@H](CO[C@@H]2O[C@H](CO)[C@@H](O)[C@H](O)[C@H]2NC(C)=O)[C@H](O[C@@H]2O[C@H](CO)[C@@H](O)[C@H](O)[C@H]2NC(C)=O)[C@@H]1O` [compound 177], the RFU in assay [2] was determined as 29 RFU. The same measure, in the same setting: the result for `CC(=O)N[C@H]1[C@H](OCCCN)O[C@H](CO)[C@@H](O[C@@H]2O[C@H](CO)[C@H](O[C@@H]3O[C@H](CO)[C@@H](O)[C@H](O)[C@H]3NC(C)=O)[C@H](O)[C@H]2O)[C@@H]1O` [compound 178] reads 33 RFU. Take `NCCCO[C@@H]1O[C@H](CO[C@@H]2O[C@H](CO)[C@@H](O)[C@H](O)[C@H]2O)[C@@H](O)[C@H](O)[C@H]1O` [compound 190]: in assay [2], the RFU is given as 28 RFU. Molecule `NCCCO[C@H]1O[C@H](C(=O)O)[C@@H](O)[C@H](O)[C@H]1O` [compound 192] showed an RFU in assay [1] of 227 RFU.

Turning to `NCCCO[C@@H]1O[C@H](C(=O)O)[C@@H](O)[C@H](O)[C@H]1O` [compound 193], in assay [1], the RFU is reported as 274 RFU. The same measure, in the same setting: then `CC(=O)N[C@H]1C(OCCCN)O[C@H](COS(=O)(=O)O)[C@@H](O[C@@H]2O[C@H](CO)[C@H](O)[C@H](OS(=O)(=O)O)[C@H]2O)[C@@H]1O[C@@H]1O[C@@H](C)[C@@H](O)[C@@H](O)[C@@H]1O` (some centres unmarked) [compound 210], with 403 RFU. The same measure, in the same setting: then `C[C@@H]1O[C@@H](O[C@H]2[C@H](O[C@H]3[C@H](O)[C@@H](O)C(OCCN)O[C@@H]3COS(=O)(=O)O)O[C@H](COS(=O)(=O)O)[C@H](O)[C@@H]2O)[C@@H](O)[C@H](O)[C@@H]1O` (some centres unmarked) [compound 213], with 1100 RFU. For the molecule `CC(=O)N[C@H]1[C@H](O[C@@H]2[C@H](O[C@]3(C(=O)O)C[C@H](O)[C@@H](NC(C)=O)[C@H]([C@H](O)[C@@H](CO)O[C@]4(C(=O)O)C[C@H](O)[C@@H](NC(C)=O)[C@H]([C@H](O)[C@@H](CO)O[C@]5(C(=O)O)C[C@H](O)[C@@H](NC(C)=O)[C@H]([C@H](O)[C@@H](CO)O[C@]6(C(=O)O)C[C@H](O)[C@@H](NC(C)=O)[C@H]([C@H](O)[C@H](O)CO)O6)O5)O4)O3)[C@@H](O)[C@H](O[C@H]3[C@H](O)[C@@H](O)[C@H](OCCN)O[C@@H]3CO)O[C@@H]2CO)O[C@H](CO)[C@H](O)[C@@H]1O` [compound 215], the RFU in assay [2] turned out to be 53 RFU.

Consider `CC(=O)N[C@H]1[C@H](OCCCN)O[C@H](COS(=O)(=O)O)[C@@H](O[C@@H]2O[C@H](CO)[C@H](O)[C@H](O[C@]3(C(=O)O)C[C@H](O)[C@@H](NC(C)=O)[C@H]([C@H](O)[C@H](O)CO)O3)[C@H]2O)[C@@H]1O[C@@H]1O[C@@H](C)[C@@H](O)[C@@H](O)[C@@H]1O` [compound 241], for which the RFU in assay [1] was determined as 256 RFU.

For `CC(=O)N[C@H]1[C@H](OCCCN)O[C@H](COS(=O)(=O)O)[C@@H](O[C@@H]2O[C@H](CO[C@]3(C(=O)O)C[C@H](O)[C@@H](NC(C)=O)[C@H]([C@H](O)[C@H](O)CO)O3)[C@H](O)[C@H](O)[C@H]2O)[C@@H]1O` [compound 256], the RFU in assay [1] is reported as 243 RFU. The molecule `CC(=O)N[C@H]1[C@H](OCCN)O[C@H](CO)[C@@H](O[C@@H]2O[C@H](CO[C@]3(C(=O)O)C[C@H](O)[C@@H](NC(C)=O)[C@H]([C@H](O)[C@H](O)CO)O3)[C@H](O)[C@H](O)[C@H]2O)[C@@H]1O` [compound 257] had an RFU in assay [2] of 424 RFU. Still for that read-out and setting: then `CC(=O)N[C@H]1[C@H]([C@H](O)[C@H](O)CO)O[C@@](OC[C@H]2O[C@@H](O[C@H]3[C@H](O)[C@@H](O)[C@H](OCCN)O[C@@H]3CO)[C@H](O)[C@@H](O)[C@H]2O)(C(=O)O)C[C@@H]1O` [compound 261], with 45 RFU; and `CC(=O)N[C@H]1[C@H](O[C@H]2[C@@H](O)[C@@H](CO)O[C@@H](O[C@@H]3[C@@H](NC(C)=O)[C@H](OCCN)O[C@H](CO)[C@H]3O[C@@H]3O[C@@H](C)[C@@H](O)[C@@H](O)[C@@H]3O)[C@@H]2O)O[C@H](CO)[C@@H](O[C@@H]2O[C@@H](C)[C@@H](O)[C@@H](O)[C@@H]2O)[C@@H]1O[C@@H]1O[C@H](CO)[C@H](O)[C@H](O)[C@H]1O` [compound 266], with 29 RFU.

Turning to `CC(=O)NC1C(OCCCN)OC(COC2(C(=O)O)CC(O)C(NC(C)=O)C(C(O)C(O)CO)O2)C(O)C1O` (centres unmarked) [compound 267], the RFU in assay [2] is recorded as 29 RFU.

As for `C[C@@H]1O[C@@H](O[C@H]2[C@H](O[C@@H]3O[C@H](CO)[C@H](O)[C@H](O)[C@H]3O)[C@@H](COS(=O)(=O)O)OC(OCCN)[C@@H]2O)[C@@H](O)[C@H](O)[C@@H]1O` (some centres unmarked) [compound 281], in assay [1], the RFU was determined as 138 RFU. `CC(=O)N[C@H]1[C@H](OCCN)O[C@H](CO)[C@@H](O[C@@H]2O[C@H](CO)[C@H](O)[C@H](O[C@]3(C(=O)O)C[C@H](O)[C@@H](NC(C)=O)[C@H]([C@H](O)[C@H](O)COC(C)=O)O3)[C@H]2O)[C@@H]1O` [compound 323] registered an RFU in assay [1] of 271 RFU. Still for that read-out and setting: then `CC(=O)N[C@H]1[C@H](OCCN)O[C@H](CO)[C@@H](O[C@@H]2O[C@H](CO)[C@H](O)[C@H](O[C@@H]3O[C@H](COS(=O)(=O)O)[C@@H](O)[C@H](O)[C@H]3NC(C)=O)[C@H]2O)[C@@H]1O` [compound 351], with 138 RFU; and `CC(=O)N[C@H]1C(OCCN)O[C@H](COS(=O)(=O)O)[C@@H](O)[C@@H]1O[C@@H]1O[C@H](COS(=O)(=O)O)[C@H](O)[C@H](O)[C@H]1O` (some centres unmarked) [compound 440], with 1773 RFU.
